Measured values published in patent US20160311788A1, “Antifouling Compounds And Use Thereof” (National University of Singapore, priority 2008, published 2016).

What was measured:
[1] = system: Stage II nauplii of Balanus amphitrite; assay: barnacle toxicity assay; assay type: in vivo
Description: (§1) Pure compounds were suspended in DMSO and sonicated to obtain a stock solution of 50 mg ml^−1 in DMSO. This stock solution is stored at −20° C. in 4 ml amber screw cap vials. For the bioassays, a small volume of stock solution was added to 1 μm filtered seawater in a glass scintillation vial. This suspension was then sonicated around 10 minutes. Serial dilutions were generated to the required range of concentrations. Serial dilution of the equivalent amounts of DMSO in seawater was used as the control.
(§2) The barnacle bioassay method used follows from the method first introduced by Rittschof et al. (1992), and subsequently by other authors (Willemsen et al., 1998). This method is now standard practice for many antifouling screening of novel compounds.
Toxicity assays were modified from Rittschof et al. (1992). Stage II naupliar larvae used in tests were obtained from Balanus amphitrite adults collected from inter-tidal rock walls at Kranji mangrove, Singapore. Larvae were collected from a container of adults by attraction to a point source of light and transferred to 500 ml of fresh seawater. Next, larvae were re-concentrated with a fiber optic light and added to assays.
Duplicate assays were conducted in 2 ml glass vials (La Pha Pack® PN 11-14-0544) in 1 ml of filtered seawater for 22 to 24 hours. The assays were repeated for confirmation. There were two sets of controls, a blank control consisting of 3 tubes of seawater only, and DMSO control consisting of the equivalent dilution series with DMSO without compound). For the compounds, there were 3 tubes of each for each test concentration. The assay was initiated by addition of barnacle naupliar in 50 μl of seawater. After 22 to 24 hours of incubation at 25-27° C. solutions containing test animals were transferred to a Bogorov tray and scored as living or dead. Moribund larvae were scored as dead. Results were confirmed by repeating the assay. Data were combined and the concentration that caused 50% mortality (LD50) was calculated by probit analysis using a basic computer program (Libermann, 1983). If data were not appropriate for probit analysis, the LD50 was estimated from graphed data.

[2] = system: cyprids of Balanus amphitrite; assay: barnacle settlement assay; assay type: in vivo; conditions: for IC50: Amphibalanus amphitrite, 24 h, Table 3(a), concentration that caused 50% settlement inhibition, 24 hours, cyprids, read-out: ED50 (the source's name); for percentage of cyprids that settled: after 24 hours incubation, averaged over two trials
Description: as §1, §2
Barnacle settlement assays were based on methodology from Rittschof et al. (1992). Barnacle larvae from field-collected adults were reared on an algal mixture of 1:1 v/v of Tetraselmis suecica and Chaetoceros muelleri at 25° C., at approximately 5×10^5 cells per ml density. On this regime, larvae metamorphose to cyprids in 5 days. These cyprids were aged at 4° C. for 2-3 days, and 45-70% settlement after 24 hours (Willemsen et al., 1998).
Settlement tests were conducted in 7 ml neutral glass vials (Samco® T1 03N1) 34 mm by 23 mm diameter, with 20-40 cyprids per well. Test solutions were made up to twice the required final concentration. 0.5 ml of test solution was added into each well, and cyprids were transferred into each well in 0.5 ml of seawater. Assays were done in triplicate. As before, there were two sets of controls, a blank control consisting 3 tubes of seawater only, and DMSO control consisting of the equivalent dilution series with DMSO without compound. After 24 hours, larvae that had attached and metamorphosed were enumerated and the result expressed as percentage settlement. Larvae not attached were scored as not settled. The assays were repeated and the concentration that caused 50% settlement inhibition (ED50) was determined by pro bit analysis using a basic computer program (Lieberman, 1983), or by estimation from graphed data.

[3] = system: marine bacteria strain S1; assay: disc inhibition assay, strain S1; assay type: cell-based, Rhodovulum iodosum; conditions: strain 1, 50 μg of compound per disc
Description: (§3) The disc inhibition assay was used. This assay is a conventional method routinely used for screening antibacterial compounds to determine degree of susceptibility to antibacterial compounds. The diameter of the zone of inhibition is proportional to the degree of susceptibility of the bacterial strain. The compounds were tested against 13 strains of marine bacteria isolated from Singapore coastal waters.
(§4) 13 strains of marine bacteria were isolated from fouling communities located in the coastal waters around Singapore. These were characterized in earlier studies and reported in Teo et al. (U.S. patent application Ser. No. 11/265,833) and Choong et al (in prep). In addition, four reference bacterial strains were added tested: Escherichia coli (Strain K12, ATCC 15222), E. coli (strain DH5a), Pseudomonas aeruginosa (strain LMG 12228; ATCC 15692) and P. putida (strain KT2440; ATCC 47054). All the bacteria were also tested against five antibiotics: ampicillin (AMP), tetracycline (TETR), erythromycin (ERY), chloramphenicol (CHL) and streptomycin (STREP).
(§5) Disks comprising the compounds to be tested were prepared as follows. The antibacterial assay, the pure compounds were made up to a concentration of 2 mgml^−1 in DMSO. 25 μl of the stock was pipetted onto each 6 mm sterile disc (Macherey-Nagel #484000) to obtain 50 μg of compound per disc. Equivalent volume of DMSO was used inoculated for the control.
(§6) For all disk inhibition assays, bacterial cultures were grown in marine broth (Pronadisa #1217.00). Sterile swabs dipped into the cultures were used to inoculate Marine Agar plates with a bacterial lawn by smearing the culture over the surface. After inoculating the plates, discs with antibiotics, pharmaceuticals or control blanks were placed on each plate. Each concentration of antibiotic or pharmaceutical was tested with two replicates. After the disks were placed on the agar surface, plates were incubated overnight in the dark at 35° C. After incubation, plates were examined for zones of inhibition or clearing around control and treated disks. The diameter of any zone of clearing or inhibition was measured using Vernier calipers. There were two replicates per treatment, and the average was taken.

[4] = system: marine bacteria strain S3; assay: disc inhibition assay, strain S3; assay type: cell-based, Erythrobacter aquimaris; conditions: strain 3, 50 μg of compound per disc; for zone of inhibition at 50 µg/disc: Qipengyuania aquimaris, S3, 24 h, read-out: zone of inhibition
Description: as §3, §4, §5, §6

[5] = system: marine bacteria strain S4; assay: disc inhibition assay, strain S4; assay type: cell-based, Bacillus algicola; conditions: strain 4, 50 μg of compound per disc; for zone of inhibition at 50 µg/disc: Guptibacillus algicola, S4, 24 h, read-out: zone of inhibition
Description: as §3, §4, §5, §6

[6] = system: marine bacteria strain S9; assay: disc inhibition assay, strain S9; assay type: cell-based, Bacillus algicola; conditions: strain 9, 50 μg of compound per disc; for zone of inhibition at 50 µg/disc: Guptibacillus algicola, S9, 24 h, read-out: zone of inhibition
Description: as §3, §4, §5, §6

[7] = system: marine bacteria strain S10; assay: disc inhibition assay, strain S10; assay type: cell-based, Halobacillus trueperi; conditions: strain 10, 50 μg of compound per disc; for zone of inhibition at 50 µg/disc: Halobacillus trueperi, S10, 24 h, read-out: zone of inhibition
Description: as §3, §4, §5, §6

[8] = system: marine bacteria strain S14; assay: disc inhibition assay, strain S14; assay type: cell-based, Vibrio probioticus; conditions: strain 14, 50 μg of compound per disc
Description: as §3, §4
(§7) Disks comprising the compounds to be tested were prepared as follows. The antibacterial assay, the pure compounds were made up to a concentration of 2 mgml^−1 in DMSO. […] Equivalent volume of DMSO was used inoculated for the control.
as §6

[9] = system: marine bacteria strain S16; assay: disc inhibition assay, strain S16; assay type: cell-based, Pseudoalteromonas piscicida; conditions: for zone of inhibition: strain 16, 50 μg of compound per disc
Description: as §3, §4, §5, §6

[10] = system: marine bacteria strain S17; assay: disc inhibition assay, strain S17; assay type: cell-based, Gordonia terrae; conditions: strain 17, 50 μg of compound per disc; for zone of inhibition at 50 µg/disc: Gordonia terrae, S17, 24 h, read-out: zone of inhibition
Description: as §3, §4, §5, §6

[11] = system: marine bacteria strain S18; assay: disc inhibition assay, strain S18; assay type: cell-based, Microbacterium esteraromaticum; conditions: strain 18, 50 μg of compound per disc; for zone of inhibition at 50 µg/disc: Microbacterium esteraromaticum, S18, 24 h, read-out: zone of inhibition
Description: as §3, §4, §7, §6

[12] = system: marine bacteria strain S27; assay: disc inhibition assay, strain S27; assay type: cell-based, Tenacibaculum lutimaris; conditions: strain 27, 50 μg of compound per disc; for zone of inhibition at 50 µg/disc: Tenacibaculum lutimaris, S27, 24 h, read-out: zone of inhibition
Description: as §3, §4, §5, §6

[13] = system: marine bacteria strain S28; assay: disc inhibition assay, strain S28; assay type: cell-based, Arthrobacter protophormial; conditions: strain 28, 50 μg of compound per disc; for zone of inhibition at 50 µg/disc: Arthrobacter, S28, 24 h, read-out: zone of inhibition
Description: as §3, §4, §5, §6

[14] = system: marine bacteria strain S29; assay: disc inhibition assay, strain S29; assay type: cell-based, Bacillus hwajinpoensis; conditions: strain 29, 50 μg of compound per disc; for zone of inhibition at 50 µg/disc: Guptibacillus hwajinpoensis, S29, 24 h, read-out: zone of inhibition
Description: as §3, §4, §5, §6

[15] = system: marine bacteria strain S30; assay: disc inhibition assay, strain S30; assay type: cell-based, Bacillus borophilicus; conditions: strain 30, 50 μg of compound per disc; for zone of inhibition at 50 µg/disc: Bacillus, S30, 24 h, read-out: zone of inhibition
Description: as §3, §4, §5, §6

[16] = Table 3(a), concentration that caused 50% mortality, 22 to 24 hours, Stage II nauplii
[17] = Table 3(b), highest concentration tested 25 μg/ml

Structure (SMILES) | IC50 [2] | zone of inhibition [3] | zone of inhibition [4] | zone of inhibition [5] | zone of inhibition at 50 µg/disc [6] | zone of inhibition [7] | zone of inhibition [8] | zone of inhibition [10] | zone of inhibition [11] | zone of inhibition [12] | zone of inhibition [13] | zone of inhibition [15] | zone of inhibition at 50 µg/disc [4] | zone of inhibition at 50 µg/disc [5] | zone of inhibition at 50 µg/disc [7] | zone of inhibition [9] | zone of inhibition at 50 µg/disc [10] | zone of inhibition at 50 µg/disc [11] | zone of inhibition at 50 µg/disc [12] | zone of inhibition at 50 µg/disc [14] | further results
CN1CCN(C(=O)C(c2ccccc2)c2ccccc2)CC1 [Compound 4.2, 1-(4-Methylpiperazin-1-yl)-2,2-diphenylethanone] | > 50 µg/mL |  |  |  |  |  |  |  |  |  |  |  |  |  |  |  |  |  |  |  | LD50 [1, 16]: 14.32 µg/mL; anti-settlement activity in words [2]: eliminated anti-settlement behaviour
CN1CCC(O)(c2ccc(Cl)cc2)CC1 [Compound 4.6] | < 10 µg/mL | − | − | − | 2 to 5 mm | − | − | − | − | − | − | − |  |  |  |  |  |  |  |  | zone of inhibition at 50 µg/disc ([9]; Pseudoalteromonas piscicida, S16, 24 h): 2 to 5 mm; zone of inhibition [14]: −
O=C(C(c1ccccc1)c1ccccc1)N1CCC(CCO)CC1 [Compound 9.2] | > 50 µg/mL |  |  |  |  |  |  |  |  |  |  |  |  |  |  |  |  |  |  |  | LD50 [1, 16]: 49.24 µg/mL
CCCCC(CCCC)C(=O)N1CCCCC1 [Compound 12.2, 2-Butyl-1-(piperidin-1-yl)hexan-1-one] |  | − |  |  | 2 to 5 mm |  | − |  |  |  |  |  | 5 to 10 mm | 2 to 5 mm | 2 to 5 mm | − | 2 to 5 mm | 5 to 10 mm | 2 to 5 mm | 2 to 5 mm | zone of inhibition at 50 µg/disc [13]: 2 to 5 mm; zone of inhibition at 50 µg/disc [15]: 2 to 5 mm; percentage of cyprids that settled ([2]; 0.2 ug/ml): 8.94%; percentage of cyprids that settled ([2]; 1 ug/ml): 8.42%; percentage of cyprids that settled ([2]; 5 ug/ml): 8.37%; percentage of cyprids that settled ([2]; 25 ug/ml): 0%
C=CCCCCC(C(=O)N1CCCCC1)c1ccccc1 (stereo not drawn) [Compound 12.4] |  | − |  |  | 2 to 5 mm |  | − |  |  |  | − | − | > 10 mm | 2 to 5 mm | 2 to 5 mm | − | 2 to 5 mm | 5 to 10 mm | 2 to 5 mm | 2 to 5 mm | 
O=C(C(CCCCC(O)CO)c1ccccc1)N1CCCCC1 (stereo not drawn) [Compound 12.5] |  | − | − | − |  | − | − | − | − | − | − | − |  |  |  | − |  |  |  | 2 to 5 mm | zone of inhibition [6]: −
CCCCC(CCCCC(O)CO)C(=O)N1CCCCC1 (stereo not drawn) [Compound 12.6] |  | − | − | − |  | − | − | − | − | − | − | − |  |  |  | − |  |  |  |  | zone of inhibition [6]: −; zone of inhibition [14]: −
C=CCCCCC(CCCC)C(=O)N1CCCCC1 (stereo not drawn) [Compound 12.7] |  |  |  |  | 5 to 10 mm |  | − |  |  |  |  |  | > 10 mm | 5 to 10 mm | 5 to 10 mm | − | 5 to 10 mm | > 10 mm | 2 to 5 mm | 2 to 5 mm | zone of inhibition at 50 µg/disc ([3]; Rhodovulum iodosum, S1, read-out: zone of inhibition): 2 to 5 mm; zone of inhibition at 50 µg/disc [13]: 2 to 5 mm; zone of inhibition at 50 µg/disc [15]: 2 to 5 mm
CCCCCCC(C(=O)N1CCCCC1)c1ccccc1 (stereo not drawn) [Compound 12.11] |  |  |  |  |  |  |  |  |  |  |  |  |  |  |  |  |  |  |  |  | LD50 [1, 17]: >25 µg/mL
CCCCCCC(CCCCCC)C(=O)N1CCCCC1 [Compound 12.12] |  |  |  |  |  |  |  |  |  |  |  |  |  |  |  |  |  |  |  |  | LD50 [1, 17]: 0.2 to 1 µg/mL
